# Measurements reported in patent US10981894B2, “Melanocortin subtype-2 receptor (MC2R) antagonists and uses thereof” (Crinetics Pharmaceuticals, Inc., priority 2018, dated 2021).
# Molecular target: hMC2 receptor (Homo sapiens, UniProt Q01718)
# Experiment: hMC2 membrane binding assay ([125I]ACTH (1-39) Tyr23, SPA)
# Design: scale not given here
# Settings: crude hMC2R membranes from CRE-bla-CHO-K1 cells expressing hMC2 receptor and hMRAP; [125I]ACTH (1-39) Tyr23 0.2 nM; 1.5 hours at room temperature; read-out: MC2R binding potency
# Description: Crude membrane fractions are prepared from CRE-bla-CHO-K1 cells stably expressing hMC2 receptor and hMRAP accessory protein (Thermo Fisher). The cells are grown to 85-100% confluence on standard tissue culture dishes in GlutaMax DMEM growth media (Gibco) with following additives: 10% dialyzed FBS (Gemini), 0.1 mM NEAA (Gibco), 25 mM HEPES (Gibco), 5 μg/mL blasticidin (Goldbio), 100 μg/mL zeocin (Invitrogen), 600 μg/mL hygromycin (Goldbio). To prepare membranes, cells are scraped and collected in 1× Dulbecco's phosphate buffered saline (Corning) and then pelleted at 1000 RPM's. The cell pellet is reconstituted in membrane preparation buffer (20 mM HEPES, 6 mM MgCl2 and 1 mM EGTA, protease inhibitor tablets (Pierce) adjusted to pH 7.4), homogenized using a dounce homogenizer, and the resulting membrane fraction is pelleted by centrifugation at 12,000 RPM's. The membrane pellet is resuspended in membrane preparation buffer, snap freezed and stored at −80° C. for later use.
# Binding Assay for hMC2 Antagonists Protocol:
# The hMC2 membrane binding assay utilizes the following components: radiolabel [^125I]ACTH (1-39) Tyr23 (PerkinElmer), wheatgerm agglutinin coated PVT SPA beads (PerkinElmer), crude hMC2R membranes, and compounds. Briefly hMC2R membranes are incubated with SPA beads in binding assay buffer (50 mM HEPES, 5 mM MgCl2, 1 mM CaCl2, 0.2% BSA, protease inhibitor tablets (Pierce) adjusted to pH7.4) prior to assay initiation. A dose response of compound (the final concentration of compound are typically 0-10,000 nM), SPA membranes, and [^125I]ACTH (1-39) Tyr23 at a final concentration of 0.2 nM is plated in a 96-well assay plate and allowed to incubate 1.5 hours at room temperature. Assay plates are read using a Top Count NXT and Ki values for compounds are determined using a GraphPad Prism 6 non-linear regression analysis.
# Chain of hMC2 receptor (Q01718 whole entry): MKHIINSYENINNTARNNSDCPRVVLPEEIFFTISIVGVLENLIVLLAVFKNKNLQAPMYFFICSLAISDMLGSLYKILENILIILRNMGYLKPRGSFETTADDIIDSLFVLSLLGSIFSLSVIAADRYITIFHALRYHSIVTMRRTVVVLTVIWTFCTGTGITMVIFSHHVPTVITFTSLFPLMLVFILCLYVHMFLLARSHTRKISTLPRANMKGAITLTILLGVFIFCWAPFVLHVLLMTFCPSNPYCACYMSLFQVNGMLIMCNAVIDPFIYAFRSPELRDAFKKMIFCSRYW
# Chain of hMC2 receptor (Q8TCY5 whole entry partner): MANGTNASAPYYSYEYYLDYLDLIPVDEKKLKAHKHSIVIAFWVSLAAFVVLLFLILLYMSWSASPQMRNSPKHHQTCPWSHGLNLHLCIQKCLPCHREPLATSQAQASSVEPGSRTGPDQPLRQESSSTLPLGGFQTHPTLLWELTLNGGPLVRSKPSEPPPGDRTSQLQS
structure (smiles),measurement,value
"CCOc1ncccc1-c1ccc(N2CCN(C(=O)OC(C(C)(C)C)C(F)(F)F)C[C@H]2CC)c(C(=O)N[C@@H]2CCNC2)n1 (single isomer, unassigned) [Compound 1-367, (2S*)-1,1,1-trifluoro-3,3-dimethylbutan-2-yl (3R)-4-(2′-ethoxy-6-{[(3R)-pyrrolidin-3-yl]carbamoyl}-[2,3′-bipyridin]-5-yl)-3-ethylpiperazine-1-carboxylate]",Ki,< 10 nM
"CCOc1ncccc1-c1ccc(N2CCN(C(=O)OC(C(C)(C)C)C(F)(F)F)C[C@H]2CC)c(C(=O)N[C@@H]2CCN(C)C2)n1 (single isomer, unassigned) [Compound 1-392, (2S*)-1,1,1-trifluoro-3,3-dimethylbutan-2-yl (3R)-4-(2′-ethoxy-6-{[(3R)-1-methylpyrrolidin-3-yl]carbamoyl}-[2,3′-bipyridin]-5-yl)-3-ethylpiperazine-1-carboxylate]",Ki,< 10 nM
"CCOc1ncccc1-c1ccc(N2CCN(C(=O)O[C@@H](C(C)(C)C)C(F)(F)F)C[C@H]2CC)c(C(=O)NCC2CN(C)C2)n1 (single isomer, unassigned) [Compound 1-396, (2S)-1,1,1-trifluoro-3,3-dimethylbutan-2-yl (3R)-4-(2′-ethoxy-6-{[(1-methylazetidin-3-yl)methyl]carbamoyl}-[2,3′-bipyridin]-5-yl)-3-ethylpiperazine-1-carboxylate; or (2R)-1,1,1-trifluoro-3,3-dimethylbutan-2-yl (3R)-4-(2′-ethoxy-6-{[(1-methylazetidin-3-yl)methyl]carbamoyl}-[2,3′-bipyridin]-5-yl)-3-ethylpiperazine-1-carboxylate]",Ki,< 10 nM
"CCOc1ncccc1-c1ccc(N2CCN(C(=O)O[C@H](C(C)(C)C)C(F)(F)F)C[C@H]2CC)c(C(=O)N[C@@H]2CCN(C)C2)n1 (single isomer, unassigned) [Compound 1-406]",Ki,< 10 nM
"CCOc1ncccc1-c1ccc(N2CCN(C(=O)O[C@@H](C(C)(C)C)C(F)(F)F)C[C@H]2CC)c(C(=O)N[C@@H]2CCN(C)C2)n1 (single isomer, unassigned) [Compound 1-407]",Ki,< 10 nM
"CC[C@@H]1CN(C(=O)c2ccc(C(F)(F)F)cc2Cl)CCN1c1ccc(-c2cccc(F)c2F)cc1C(=O)NCCN [Compound 1-1, N-(2-aminoethyl)-4-[(2R)-4-[2-chloro-4-(trifluoromethyl)benzoyl]-2-ethylpiperazin-1-yl]-2′,3′-difluoro-[1,1′-biphenyl]-3-carboxamide]",Ki,10 to 100 nM
"CC[C@@H]1CN(C(=O)c2ccc(C(F)(F)F)cc2Cl)CCN1c1ccc(-c2ccccc2OC)cc1C(=O)NCCN [Compound 1-2, N-(2-aminoethyl)-4-[(2R)-4-[2-chloro-4-(trifluoromethyl)benzoyl]-2-ethylpiperazin-1-yl]-2′-methoxy-[1,1′-biphenyl]-3-carboxamide]",Ki,< 10 nM
"CCOc1ccccc1-c1ccc(N2CCN(C(=O)c3ccc(C(F)(F)F)cc3Cl)C[C@H]2CC)c(C(=O)NCCN)c1 [Compound 1-3, N-(2-aminoethyl)-4-[(2R)-4-[2-chloro-4-(trifluoromethyl)benzoyl]-2-ethylpiperazin-1-yl]-2′-ethoxy-[1,1′-biphenyl]-3-carboxamide]",Ki,< 10 nM
"CC[C@@H]1CN(C(=O)c2ccc(C(F)(F)F)cc2Cl)CCN1c1ccc(-c2ccccc2F)cc1C(=O)NCCN [Compound 1-4, N-(2-aminoethyl)-4-[(2R)-4-[2-chloro-4-(trifluoromethyl)benzoyl]-2-ethylpiperazin-1-yl]-2′-fluoro-[1,1′-biphenyl]-3-carboxamide]",Ki,10 to 100 nM
"CC[C@@H]1CN(C(=O)c2ccc(C(F)(F)F)cc2Cl)CCN1c1ccc(-c2ccccc2Cl)cc1C(=O)NCCN [Compound 1-6, N-(2-aminoethyl)-2′-chloro-4-[(2R)-4-[2-chloro-4-(trifluoromethyl)benzoyl]-2-ethylpiperazin-1-yl]-[1,1′-biphenyl]-3-carboxamide]",Ki,10 to 100 nM
"CC[C@@H]1CN(C(=O)c2ccc(C(F)(F)F)cc2Cl)CCN1c1ccc(-c2ccccc2C#N)cc1C(=O)NCCN [Compound 1-7, N-(2-aminoethyl)-4-[(2R)-4-[2-chloro-4-(trifluoromethyl)benzoyl]-2-ethylpiperazin-1-yl]-2′-cyano-[1,1′-biphenyl]-3-carboxamide]",Ki,10 to 100 nM
"CC[C@@H]1CN(C(=O)c2ccc(C(F)(F)F)cc2Cl)CCN1c1ccc(-c2ccccc2C)cc1C(=O)NCCN [Compound 1-8, N-(2-aminoethyl)-4-[(2R)-4-[2-chloro-4-(trifluoromethyl)benzoyl]-2-ethylpiperazin-1-yl]-2′-methyl-[1,1′-biphenyl]-3-carboxamide]",Ki,10 to 100 nM
"CC[C@@H]1CN(C(=O)c2ccc(C(F)(F)F)cc2Cl)CCN1c1ccc(-c2cccc(F)c2Cl)cc1C(=O)NCCN [Compound 1-9, N-(2-aminoethyl)-2′-chloro-4-[(2R)-4-[2-chloro-4-(trifluoromethyl)benzoyl]-2-ethylpiperazin-1-yl]-3′-fluoro-[1,1′-biphenyl]-3-carboxamide]",Ki,10 to 100 nM
"CCCOc1ccccc1-c1ccc(N2CCN(C(=O)c3ccc(C(F)(F)F)cc3Cl)C[C@H]2CC)c(C(=O)NCCN)c1 [Compound 1-11, N-(2-aminoethyl)-4-[(2R)-4-[2-chloro-4-(trifluoromethyl)benzoyl]-2-ethylpiperazin-1-yl]-2′-propoxy-[1,1′-biphenyl]-3-carboxamide]",Ki,10 to 100 nM
"CCOc1ccccc1-c1ccc(N2CCN(C(=O)c3ccc(Cl)cc3Cl)C[C@H]2CC)c(C(=O)NCCN)c1 [Compound 1-15, (R)-N-(2-aminoethyl)-4-(4-(2,4-dichlorobenzoyl)-2-ethylpiperazin-1-yl)-2′-ethoxy-[1,1′-biphenyl]-3-carboxamide]",Ki,< 10 nM
"CC[C@@H]1CN(C(=O)c2ccc(C(F)(F)F)cc2Cl)CCN1c1ccc(-c2ccccc2COC)cc1C(=O)NCCN [Compound 1-16, (R)-N-(2-aminoethyl)-4-(4-(2-chloro-4-(trifluoromethyl)benzoyl)-2-ethylpiperazin-1-yl)-2′-(methoxymethyl)-[1,1′-biphenyl]-3-carboxamide]",Ki,10 to 100 nM
"CCOc1ccccc1-c1ccc(N2CCN(C(=O)c3ccc(F)cc3-c3ccc(CN)cc3)C[C@H]2CC)c(C(=O)NCCN)c1 [Compound 1-17, N-(2-aminoethyl)-4-[(2R)-4-[4′-(aminomethyl)-5-fluoro-[1,1′-biphenyl]-2-carbonyl]-2-ethylpiperazin-1-yl]-2′-ethoxy-[1,1′-biphenyl]-3-carboxamide]",Ki,< 10 nM
"CCOc1ccccc1-c1ccc(N2CCN(C(=O)c3ccc(C)cc3-c3ccc(CN)cc3)C[C@H]2CC)c(C(=O)NCCN)c1 [Compound 1-18, (R)-N-(2-aminoethyl)-4-(4-(4′-(aminomethyl)-5-methyl-[1,1′-biphenyl]-2-carbonyl)-2-ethylpiperazin-1-yl)-2′-ethoxy-[1,1′-biphenyl]-3-carboxamide]",Ki,< 10 nM
"CC[C@@H]1CN(C(=O)c2ccc(C(F)(F)F)cc2Cl)CCN1c1ccc(-c2ccccc2C(=O)OC)cc1C(=O)NCCN [Compound 1-19, methyl (R)-3′-((2-aminoethyl)carbamoyl)-4′-(4-(2-chloro-4-(trifluoromethyl)benzoyl)-2-ethylpiperazin-1-yl)-[1,1′-biphenyl]-2-carboxylate]",Ki,10 to 100 nM
